Reference: ChEMBL document CHEMBL1134069 (Bioorg Med Chem Lett, 2001)

Columns and labels:
[1] = target: T1, Thymidine kinase 2, mitochondrial (Homo sapiens, UniProt O00142); assay: Inhibitory concentration against mitochondrial thymidine kinase (TK-2)
T1 sequence (O00142 whole entry): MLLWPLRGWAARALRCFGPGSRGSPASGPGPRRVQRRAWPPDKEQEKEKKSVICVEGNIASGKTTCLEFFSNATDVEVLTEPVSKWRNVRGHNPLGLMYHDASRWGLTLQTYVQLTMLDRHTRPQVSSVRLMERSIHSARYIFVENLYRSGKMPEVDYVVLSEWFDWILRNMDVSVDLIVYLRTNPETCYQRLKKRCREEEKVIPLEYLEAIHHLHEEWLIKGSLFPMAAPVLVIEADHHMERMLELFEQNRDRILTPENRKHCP

Thymidine kinase [2] = target: T2, Thymidine kinase (Varicella-zoster virus (strain Dumas) (HHV-3) (Human herpesvirus 3), UniProt P09250); assay: Inhibitory concentration against Varicella- zoster virus thymidine kinase(VZV TK); design: species or system Human alphaherpesvirus 3
T2 sequence (P09250 whole entry): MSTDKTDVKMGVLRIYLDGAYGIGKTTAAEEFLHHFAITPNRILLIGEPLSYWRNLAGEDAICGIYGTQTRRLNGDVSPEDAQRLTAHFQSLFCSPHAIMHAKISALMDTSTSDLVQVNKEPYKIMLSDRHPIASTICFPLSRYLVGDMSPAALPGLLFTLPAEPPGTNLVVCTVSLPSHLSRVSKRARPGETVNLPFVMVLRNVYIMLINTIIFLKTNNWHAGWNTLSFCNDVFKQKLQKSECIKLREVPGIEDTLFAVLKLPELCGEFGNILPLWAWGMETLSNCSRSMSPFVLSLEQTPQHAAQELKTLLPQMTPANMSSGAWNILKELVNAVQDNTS

Deoxynucleoside kinase = target: T3, Deoxynucleoside kinase (Drosophila melanogaster, UniProt Q9XZT6); assay: Inhibitory concentration against Drosophila melanogaster deoxyribonucleoside kinase (Dm-dNK)
T3 sequence (Q9XZT6 whole entry): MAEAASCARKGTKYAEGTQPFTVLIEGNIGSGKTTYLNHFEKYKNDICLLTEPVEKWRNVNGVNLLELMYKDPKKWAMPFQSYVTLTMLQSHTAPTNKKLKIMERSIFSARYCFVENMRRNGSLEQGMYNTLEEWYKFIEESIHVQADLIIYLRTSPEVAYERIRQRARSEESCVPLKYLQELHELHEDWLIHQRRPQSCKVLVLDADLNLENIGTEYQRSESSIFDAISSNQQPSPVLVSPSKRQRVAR

[3] = target: T4, Thymidine kinase, cytosolic (Homo sapiens, UniProt P04183); assay: Inhibitory concentration against cytosolic thymidine kinase (TK-1)
T4 sequence (P04183 whole entry): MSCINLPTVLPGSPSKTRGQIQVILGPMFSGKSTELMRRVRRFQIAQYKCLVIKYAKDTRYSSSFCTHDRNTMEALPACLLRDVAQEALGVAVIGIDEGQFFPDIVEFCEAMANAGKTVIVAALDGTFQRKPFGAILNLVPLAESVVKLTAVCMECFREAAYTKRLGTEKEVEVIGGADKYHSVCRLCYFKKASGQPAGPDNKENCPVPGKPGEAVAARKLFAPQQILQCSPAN

Thymidine kinase [4] = target: T5, Thymidine kinase (Human herpesvirus 1 (strain SC16) (HHV-1) (Human herpes simplex virus1), UniProt P06479); assay: Inhibitory concentration against Herpes simplex virus type 1 thymidine kinase(HSV-1 TK); design: species or system Herpes simplex virus (type 1 / strain SC16)
T5 sequence (P06479 whole entry): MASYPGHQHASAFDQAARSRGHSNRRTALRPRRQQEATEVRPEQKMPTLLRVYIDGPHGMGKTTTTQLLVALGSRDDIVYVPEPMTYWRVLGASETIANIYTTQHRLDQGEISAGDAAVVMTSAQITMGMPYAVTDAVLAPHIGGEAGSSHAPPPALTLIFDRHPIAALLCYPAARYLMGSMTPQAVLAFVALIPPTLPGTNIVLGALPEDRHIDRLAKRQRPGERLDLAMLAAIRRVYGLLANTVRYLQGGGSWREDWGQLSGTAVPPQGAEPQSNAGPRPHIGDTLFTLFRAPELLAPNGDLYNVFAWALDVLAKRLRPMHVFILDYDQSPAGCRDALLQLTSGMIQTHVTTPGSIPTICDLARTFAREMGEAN

SMILES: CCCCCCCC(=O)O[C@H]1[C@H](O)[C@@H](CO)O[C@H]1n1cc(/C=C/Br)c(=O)[nH]c1=O
- IC50 [1]: 6.3 µM
- IC50 (Thymidine kinase [2]): 718 µM
- IC50 (Deoxynucleoside kinase): 178 µM
- IC50 [3]: > 1000 µM
- IC50 (Thymidine kinase [4]): > 1000 µM

SMILES: Nc1ccn([C@@H]2O[C@H](CO)[C@@H](O)[C@@H]2O)c(=O)n1 [CYTARABINE]
- IC50 [1]: > 1000 µM
- IC50 (Thymidine kinase [2]): > 1000 µM
- IC50 [3]: > 1000 µM
- IC50 (Thymidine kinase [4]): > 1000 µM

SMILES: CCCCCCCCCCCC(=O)O[C@H]1[C@H](O)[C@@H](CO)O[C@H]1n1cc(C)c(=O)[nH]c1=O
- IC50 [1]: 28 µM
- IC50 (Thymidine kinase [2]): > 1000 µM
- IC50 (Deoxynucleoside kinase): > 1000 µM
- IC50 [3]: > 1000 µM
- IC50 (Thymidine kinase [4]): > 1000 µM

SMILES: COCC(=O)O[C@H]1[C@H](O)[C@@H](CO)O[C@H]1n1cc(/C=C/Br)c(=O)[nH]c1=O
- IC50 [1]: 402 µM
- IC50 (Thymidine kinase [2]): 35 µM
- IC50 [3]: > 1000 µM
- IC50 (Thymidine kinase [4]): 84 µM

SMILES: CCCCCCCCO[C@H]1[C@H](O)[C@@H](CO)O[C@H]1n1ccc(N)nc1=O
- IC50 [1]: > 1000 µM
- IC50 (Thymidine kinase [2]): > 1000 µM
- IC50 [3]: > 1000 µM
- IC50 (Thymidine kinase [4]): > 1000 µM

SMILES: Cc1cn([C@@H]2O[C@H](CO)[C@@H](O)[C@@H]2O)c(=O)[nH]c1=O
- IC50 [1]: 285 µM
- IC50 (Thymidine kinase [2]): 17 µM
- IC50 (Deoxynucleoside kinase): 65 µM
- IC50 [3]: > 1000 µM
- IC50 (Thymidine kinase [4]): 24 µM

SMILES: O=c1[nH]c(=O)n(C2O[C@H](CO)[C@@H](O)[C@@H]2O)cc1/C=C\Br (some centres not stated)
- IC50 [1]: 43 µM
- IC50 (Thymidine kinase [2]): 3.3 µM
- IC50 (Deoxynucleoside kinase): 31.6 µM
- IC50 [3]: > 500 µM
- IC50 (Thymidine kinase [4]): 4.3 µM

SMILES: Cc1cn([C@@H]2O[C@H](CO)[C@@H](O)[C@H]2OCc2ccccc2)c(=O)[nH]c1=O
- IC50 [1]: 801 µM
- IC50 (Thymidine kinase [2]): > 1000 µM
- IC50 (Deoxynucleoside kinase): > 1000 µM
- IC50 [3]: > 1000 µM
- IC50 (Thymidine kinase [4]): > 1000 µM

SMILES: CCCCCCCCO[C@H]1[C@H](O)[C@@H](CO)O[C@H]1n1cc(C)c(=O)[nH]c1=O
- IC50 [1]: 120 µM
- IC50 (Thymidine kinase [2]): > 1000 µM
- IC50 (Deoxynucleoside kinase): > 1000 µM
- IC50 [3]: > 1000 µM
- IC50 (Thymidine kinase [4]): > 1000 µM

SMILES: CCCCC(=O)O[C@H]1[C@H](O)[C@@H](CO)O[C@H]1n1cc(C)c(=O)[nH]c1=O
- IC50 [1]: > 1000 µM
- IC50 (Thymidine kinase [2]): > 1000 µM
- IC50 (Deoxynucleoside kinase): > 1000 µM
- IC50 [3]: > 1000 µM
- IC50 (Thymidine kinase [4]): > 1000 µM

SMILES: CCCCCCCCCC(=O)O[C@H]1[C@H](O)[C@@H](CO)O[C@H]1n1cc(C)c(=O)[nH]c1=O
- IC50 [1]: 27 µM
- IC50 (Thymidine kinase [2]): > 1000 µM
- IC50 (Deoxynucleoside kinase): 872 µM
- IC50 [3]: > 1000 µM
- IC50 (Thymidine kinase [4]): > 1000 µM

SMILES: CCCCCCCCCC(=O)O[C@H]1[C@H](O)[C@@H](CO)O[C@H]1n1cc(/C=C/Br)c(=O)[nH]c1=O
- IC50 [1]: 6.8 µM
- IC50 (Thymidine kinase [2]): 845 µM
- IC50 (Deoxynucleoside kinase): 163 µM
- IC50 [3]: > 1000 µM
- IC50 (Thymidine kinase [4]): > 1000 µM
